Source: patent US20130053243A1, “PLANTS HAVING INCREASED TOLERANCE TO HERBICIDES” (BASF SE, priority 2010, published 2013)

Experiments:
Assay type in all cases: biochemical
Chlamydomonas HPPD2 = Chlamydomonas HPPD2 (Chlamydomonas reinhardtii, UniProt A0A2K3DET5); assay: HPPD activity assay, wildtype enzyme; details: calculated from IC50 with Cheng-Prusoff equation, read-out: dissociation constant Ki
Procedure: (§1) HPPD produces homogentisic acid and CO2 from 4-hydroxyphenylpyruvate (4-HPP) and O2. The activity assay for HPPD is based on the analysis of homogentisic acid by reversed phase HPLC.
(§2) The assay mixture can contain 150 mM potassium phosphate buffer pH 7.0, 50 mM L-ascorbic acid, 1 μM FeSO4 and 7 μg of purified enzyme in a total volume of 1 ml.
Inhibitors are dissolved in DMSO (dimethylsulfoxide) to a concentration of 20 mM or 0.5 mM, respectively. From this stock solution serial five-fold dilutions are prepared in DMSO, which are used in the assay. The respective inhibitor solution accounts for 1% of the assay volume. […]
(§3) 10 μl of the eluate is analyzed by reversed phase HPLC on a Symmetry® C18 column (particle size 3.5 μm, dimensions 4.6×100 mm; Waters) using 5 mM H3PO4/15% ethanol (w/w) as an eluent.
(§4) Homogentisic acid is detected electrochemically and quantified by measuring peak areas (Empower software; Waters).
Activities are normalized by setting the uninhibited enzyme activity to 100%. IC50 values are calculated using non-linear regression. […]
(§5) 5 μl of the cleared sample is analyzed on an Atlantis T3 column (particle size 3 μm, dimensions 3×50 mm; Waters) by isocratic elution using 90% 10 mM NaH2PO4 pH 2.2, 10% methanol (v/v).
HGA is detected electrochemically at 750 mV (mode: DC; polarity: positive) and quantified by integrating peak areas (Empower software; Waters). […]

[1] = target: T1, Arabidopsis HPPD variant P336A E363Q (Arabidopsis thaliana, UniProt P93836, E363Q/P336A); assay: HPPD activity assay, mutant enzyme
T1 construct: His6 (N); made in house; host or cells: E. coli BL21 (DE3)
Procedure: as §1, §2
(§6) Inhibitors are dissolved in DMSO (dimethylsulfoxide) to a concentration of 20 mM or 0.5 mM, respectively. From this stock solution serial five-fold dilutions are prepared in DMSO, which are used in the assay. The respective inhibitor solution accounts for 1% of the assay volume. Thus, final inhibitor concentrations range from 200 μM to 2.5 nM or from 5 μM to 63 pM, respectively.
(§7) After a preincubation of 30 min the reaction is started by adding 4-HPP to a final concentration of 0.1 mM. The reaction is allowed to proceed for 120 min at room temperature. The reaction is stopped by addition of 100 μl of 4.5 M phosphoric acid.
(§8) The sample is extracted on an Oasis® HLB cartridge 3 cc/60 mg (Waters) that was preequilibrated with 63 mM phosphoric acid. L-ascorbic acid is washed out with 3 ml of 63 mM phosphoric acid. Homogentisate is eluted with 1 ml of a 1:1 mixture of 63 mM phosphoric acid and methanol (w/w).
as §3, §4
(§9) Activities are normalized by setting the uninhibited enzyme activity to 100%. IC50 values are calculated using non-linear regression.
(§10) The assay mixture can contain 150 mM potassium phosphate buffer pH 7.0, 50 mM L-ascorbic acid, 100 μM Catalase (Sigma-Aldrich), 1 μM FeSO4 and 0.2 units of purified HPPD enzyme in a total volume of 505 μl. 1 unit is defined as the amount of enzyme that is required to produce 1 nmol of HGA per minute at 20° C.
(§11) After a preincubation of 30 min the reaction is started by adding 4-HPP to a final concentration of 0.05 mM. The reaction is allowed to proceed for 45 min at room temperature. The reaction is stopped by the addition of 50 μl of 4.5 M phosphoric acid. The sample is filtered using a […] pore size PVDF filtration device.
as §5
(§12) HGA is detected electrochemically at 750 mV (mode: DC; polarity: positive) and quantified by integrating peak areas (Empower software; Waters).
(§13) Inhibitors are dissolved in DMSO (dimethylsulfoxide) to a concentration of 0.5 mM. From this stock solution serial five-fold dilutions are prepared in DMSO, which are used in the assay. The respective inhibitor solution accounts for 1% of the assay volume. Thus, final inhibitor concentrations range from 5 μM to 320 pM, respectively. Activities are normalized by setting the uninhibited enzyme activity to 100%. IC50 values are calculated using non-linear regression.
(§14) Purified, mutant HPPD enzymes are obtained by the methods described above. Dose response and kinetic measurements are carried out using the described HPPD activity assay. Apparent michaelis constants (Km) and maximal reaction velocities (Vmax) are calculated by non-linear regression with the software GraphPad Prism 5 (GraphPad Software, La Jolla, USA) using a substrate inhibition model. Apparent kcat values are calculated from Vmax assuming 100% purity of the enzyme preparation. Weighted means (by standard error) of Km and IC50 values are calculated from at least three independent experiments. The Cheng-Prusoff equation for competitive inhibition (Cheng, Y. C.; Prusoff, W. H. Biochem Pharmacol 1973, 22, 3099-3108) is used to calculate dissociation constants (Ki). Examples of the data obtained are depicted in Table 13.

[2] = target: T2, Arabidopsis HPPD variant M335N (Arabidopsis thaliana, UniProt P93836, M335N); assay: HPPD activity assay, mutant enzyme
T2 construct: His6 (N); made in house; host or cells: E. coli BL21 (DE3)
Procedure: as §1, §2, §6, §7, §8, §3, §4, §9, §10, §11, §5, §12, §13, §14

[3] = target: T3, Arabidopsis HPPD variant I393L (Arabidopsis thaliana, UniProt P93836, I393L); assay: HPPD activity assay, mutant enzyme
T3 construct: His6 (N); made in house; host or cells: E. coli BL21 (DE3)
Procedure: as §1, §2, §6, §7, §8, §3, §4, §9, §10, §11, §5, §12, §13, §14

[4] = target: T4, Arabidopsis HPPD variant M335Q (Arabidopsis thaliana, UniProt P93836, M335Q); assay: HPPD activity assay, mutant enzyme
T4 construct: His6 (N); made in house; host or cells: E. coli BL21 (DE3)
Procedure: as §1, §2, §6, §7, §8, §3, §4, §9, §10, §11, §5, §12, §13, §14

[5] = target: T5, Arabidopsis HPPD variant L385V (Arabidopsis thaliana, UniProt P93836, L385V); assay: HPPD activity assay, mutant enzyme
T5 construct: His6 (N); made in house; host or cells: E. coli BL21 (DE3)
Procedure: as §1, §2, §6, §7, §8, §3, §4, §9, §10, §11, §5, §12, §13, §14

Sequence of Chlamydomonas HPPD2 (A0A2K3DET5 entry or part of it): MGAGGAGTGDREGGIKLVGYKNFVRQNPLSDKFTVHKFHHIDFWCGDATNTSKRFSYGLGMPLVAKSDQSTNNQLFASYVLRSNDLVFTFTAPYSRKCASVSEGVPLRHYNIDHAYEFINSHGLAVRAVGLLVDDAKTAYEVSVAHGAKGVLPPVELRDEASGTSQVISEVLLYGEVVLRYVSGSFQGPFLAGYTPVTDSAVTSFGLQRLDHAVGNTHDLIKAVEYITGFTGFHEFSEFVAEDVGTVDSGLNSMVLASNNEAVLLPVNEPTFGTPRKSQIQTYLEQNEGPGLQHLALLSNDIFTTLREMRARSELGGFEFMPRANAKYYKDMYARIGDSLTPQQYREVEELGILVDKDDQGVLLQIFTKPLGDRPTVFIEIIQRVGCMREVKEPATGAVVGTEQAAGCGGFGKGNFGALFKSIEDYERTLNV
T4 sequence (P93836 whole entry M335Q): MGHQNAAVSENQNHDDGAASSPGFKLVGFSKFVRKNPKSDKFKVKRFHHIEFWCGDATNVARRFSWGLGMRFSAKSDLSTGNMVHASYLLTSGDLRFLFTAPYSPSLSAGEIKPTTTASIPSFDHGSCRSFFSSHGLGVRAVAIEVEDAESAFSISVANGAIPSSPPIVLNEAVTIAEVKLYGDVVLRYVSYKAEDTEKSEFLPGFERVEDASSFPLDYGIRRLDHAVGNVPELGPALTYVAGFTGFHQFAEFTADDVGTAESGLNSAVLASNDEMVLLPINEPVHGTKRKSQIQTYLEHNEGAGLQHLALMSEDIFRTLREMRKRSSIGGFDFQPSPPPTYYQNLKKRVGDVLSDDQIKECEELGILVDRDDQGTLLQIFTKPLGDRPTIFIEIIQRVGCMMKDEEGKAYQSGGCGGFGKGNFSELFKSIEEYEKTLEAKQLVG
T2 sequence (P93836 whole entry M335N): as the sequence (P93836 whole entry M335Q) above, with Q335N counted along it
T3 sequence (P93836 whole entry I393L): as the sequence (P93836 whole entry M335Q) above, with Q335M, I393L counted along it
T1 sequence (P93836 whole entry P336A/E363Q): as the sequence (P93836 whole entry M335Q) above, with Q335M, P336A, E363Q counted along it
T5 sequence (P93836 whole entry L385V): as the sequence (P93836 whole entry M335Q) above, with Q335M, L385V counted along it

SMILES: CC1=NOC(c2c(Cl)ccc(C3=C(O)c4ncccc4N(CC(F)F)S3(=O)=O)c2Cl)C1 (stereo not drawn) [Inhibitor 1, 3-[2,4-dichloro-3-(3-methyl-4,5-dihydroisoxazol-5-yl)phenyl]-1-(2,2-difluoroethyl)-2,2-dioxo-pyrido[3,2-c]thiazin-4-ol]
- Ki (Chlamydomonas HPPD2): 8 nM
- Ki [1]: 13 nM
- Ki [2]: 20 nM
- Ki [3]: 21 nM
- Ki [4]: 24 nM
- Ki [5]: 19 nM
